In US20180228861A1, “COMPOSITION FOR TREATING DIABETES AND DYSLIPIDEMIA OBTAINED FROM THE EXTRACT OF COSTUS PICTUS D.DON PLANT AND A METHOD OF PREPARING THE SAME” (ARJUNA NATURAL EXTRACTS, LTD., priority 2012, published 2018):

Experiments:
Format in all cases: in vivo
[1] = test system: streptozotocin-induced Type 1 diabetic model in Wistar rats; assay: Insulin and glycosylated Hb levels in streptozotocin-induced diabetic rats; details: extracts 40 mg/kg orally, glibenclamide 3 mg/kg orally
Description: (§1) The study was conducted in adult male Wistar rats weighing 200-250 gm for a period of 40 days (30 days of treatment and 10 days of induction). The animals were randomly divided into seven groups comprising six each. Diabetes was induced in all the groups except the normal control group by the intra peritoneal administration of streptozotocin at 50 mg/kg. […] The effect of the different fractions was assessed by measuring the fasting blood glucose level, post prandial blood glucose level, serum insulin levels and glycosylated Hb. The anti hyperlipidemic effect was assessed by the estimation of total cholesterol, triglyceride, LDL cholesterol, HDL cholesterol, VLDL, muscle glycogen and liver glycogen. The antioxidant effects of the different extracts were assessed by the measuring TBARS, superoxide dismutase (SOD), catalase, reduced glutathione (GSH) and glutathione peroxidase levels (GPx). TBARS was determined by TBA assay (Ohkawa et al., 1979), SOD was measured using the nitroblue tetrazolium reduction method (Kakkar et al., 1984), Catalase was assayed using the method described by Aebi (1974). GPx was measured as described by Flohe and Gunzler (1984), GSH was measured as per the method of Jollow et al., (1974). Histopathological examination of pancreas was conducted to assess the antidiabetic effect of the different fractions of Costus pictus D. Don.

[2] = test system: streptozotocin-induced Type 1 diabetic model in Wistar rats; assay: Pancreatic histopathology in streptozotocin-induced diabetic rats; details: for beta cell staining in islet of Langerhans (immune histochemistry, in words): FIG. 13-17
Description: as §1

[3] = test system: streptozotocin-induced Type 1 diabetic model in Wistar rats; assay: Antioxidant enzymes and TBARS in streptozotocin-induced diabetic rats; details: extracts 40 mg/kg orally, glibenclamide 3 mg/kg orally
Description: as §1

[4] = test system: streptozotocin-induced Type 1 diabetic model in Wistar rats; assay: Lipid profile in streptozotocin-induced diabetic rats; details: extracts 40 mg/kg orally, glibenclamide 3 mg/kg orally
Description: as §1

[5] = test system: streptozotocin-induced Type 1 diabetic model in Wistar rats; assay: Oral glucose tolerance test (post prandial glucose) in streptozotocin-induced diabetic rats; details: OGTT, glucose 2.5 g/kg oral gavage
Description: The study was conducted in adult male Wistar rats weighing 200-250 gm for a period of 40 days (30 days of treatment and 10 days of induction). The animals were randomly divided into seven groups comprising six each. Diabetes was induced in all the groups except the normal control group by the intra peritoneal administration of streptozotocin at 50 mg/kg. After the induction of diabetes, one group was kept as diabetic untreated control and a positive control was maintained in which the animals were treated with standard drug, glibenclamide at 3 mg/kg orally. All the other diabetic induced groups were treated with different extracts at 300 mg/kg orally. The effect of the different fractions was assessed by measuring the fasting blood glucose level, post prandial blood glucose level, serum insulin levels and glycosylated Hb. The anti hyperlipidemic effect was assessed by the estimation of total cholesterol, triglyceride, LDL cholesterol, HDL cholesterol, VLDL, muscle glycogen and liver glycogen. The antioxidant effects of the different extracts were assessed by the measuring TBARS, superoxide dismutase (SOD), catalase, reduced glutathione (GSH) and glutathione peroxidase levels (GPx). TBARS was determined by TBA assay (Ohkawa et al., 1979), SOD was measured using the nitroblue tetrazolium reduction method (Kakkar et al., 1984), Catalase was assayed using the method described by Aebi (1974). GPx was measured as described by Flohe and Gunzler (1984), GSH was measured as per the method of Jollow et al., (1974). Histopathological examination of pancreas was conducted to assess the antidiabetic effect of the different fractions of Costus pictus D. Don.
Oral glucose tolerance test (OGTT) was performed following a glucose challenge of 2.5 g/kg by oral gavage. Blood glucose was recorded at 30 min (PPG1), 60 min (PPG2), 120 min (PPG3) and 240 min (PPG4), after the glucose challenge on day 1, day 15 and day 30 of the study.

[6] = test system: streptozotocin-induced Type 1 diabetic model in Wistar rats; assay: Muscle and liver glycogen in streptozotocin-induced diabetic rats; details: extracts 40 mg/kg orally, glibenclamide 3 mg/kg orally
Description: as §1

SMILES: COc1ccc(Cl)cc1C(=O)NCCc1ccc(S(=O)(=O)NC(=O)NC2CCCCC2)cc1 [glibenclamide]
- Glycosylated Hb [1]: 0.5 % total Hb
- Insulin level [1]: 13 μU/ml
- beta cell staining in islet of Langerhans (immune histochemistry, in words) ([2]; pancreas of streptozotocin-induced diabetic rats): moderately stained and comparable to group 1
- beta cell staining in islet of Langerhans (immune histochemistry, in words) ([2]; pancreas of streptozotocin-induced diabetic rats, listed as Glibenclamide): moderately stained beta cells
- mean number of islets ([2]; pancreas of streptozotocin-induced diabetic rats, normal group 36, untreated diabetic group 5): 18.66
- appearance of islets in pancreas sections (in words) ([2]; versus untreated diabetic control): less shrunken than the untreated diabetic control group
- Catalase [3]: 59.36 nM H2O2 decomposed/s/g
- GPx [3]: 7.54 U/mg of protein
- GSH [3]: 38.12 mg/100 g
- SOD [3]: 2.96 U/mg protein
- TBARS [3]: 0.80 mM MDA/100 g
- HDL ([4]; HDL cholesterol): 52 mg/dL
- LDL ([4]; LDL cholesterol): 56 mg/dL
- VLDL [4]: 20 mg/dL
- TC ([4]; total cholesterol): 128 mg/dL
- TG ([4]; triglyceride): 100 mg/dL
- PPG1. 1 ([5]; blood glucose at 30 min, day 1): 522.8
- PPG1. 15 ([5]; blood glucose at 30 min, day 15): 318.3
- PPG1. 30 ([5]; blood glucose at 30 min, day 30): 232.1
- PPG2. 1 ([5]; blood glucose at 60 min, day 1): 478.4
- PPG2. 15 ([5]; blood glucose at 60 min, day 15): 217.4
- PPG2. 30 ([5]; blood glucose at 60 min, day 30): 240.4
- PPG3. 1 ([5]; blood glucose at 120 min, day 1): 332.1
- PPG3. 15 ([5]; blood glucose at 120 min, day 15): 115.3
- PPG3. 30 ([5]; blood glucose at 120 min, day 30): 177.3
- PPG4. 1 ([5]; blood glucose at 240 min, day 1): 201.9
- PPG4. 15 ([5]; blood glucose at 240 min, day 15): 104.8
- PPG4. 30 ([5]; blood glucose at 240 min, day 30): 69.8
- Liver glycogen [6]: 46 mg/g tissue
- Muscle glycogen [6]: 8 mg/g tissue
